Experimental findings from patent publication US20160309708A1, “POLYCARBOXYLIC ACID ESTER ALKYL DERIVED FROM BRANCHED AND STRAIGHT ALCOHOL OF PLANT ORIGIN, AND USE OF AN ALKYL ESTER IN AGROCHEMICAL FORMULATIONS” (priority 2013, published 2016) are described below.

A short description of this series: Solubility limit of active ingredients in the alkyl esters of polycarboxylic acids at 25° C. The series is classed as physicochemical. The following applies: under agitation, solvent: alkyl esters of polycarboxylic acids.
Turning to `CCCC1COC(Cn2cncn2)(c2ccc(Cl)cc2Cl)O1` (centres unmarked) [PROPICONAZOLE, Propiconazole], the “solubility limit in alkyl esters of polycarboxylic acids of this invention” value amounted to 1568 GRAMS PER LITER.
The same measure for Abamectin: 116 GRAMS PER LITER; for `Cc1c(COC(=O)[C@@H]2[C@H](/C=C(\Cl)C(F)(F)F)C2(C)C)cccc1-c1ccccc1` (racemic) [BIFENTRIN, Bifenthrin]: 702 GRAMS PER LITER; for `CC(C)(C)C(O)(CCc1ccc(Cl)cc1)Cn1cncn1` (centres unmarked) [TEBUCONAZOLE, Tebuconazole]: 240 GRAMS PER LITER.
Next, `CCOP(=S)(OCC)Oc1nc(Cl)c(Cl)cc1Cl` [CHLORPYRIFOS, Chlorpyrifos]: 900 GRAMS PER LITER.
